Values joined by “and” are separate entries in the source; they are usually repeats but may differ in a detail not shown here. Equal values may be shown once.
Experiments:
Type in all cases: cell-based, human
[1] = tested on: cord blood-derived CD34+CD90+ cells; assay: Ex vivo expansion culture of cord blood CD34+ cells with chromatin modifying agents, flow cytometry for CD34/CD90
From the text: Freshly collected human CB was obtained from the New York Blood Center (New York, N.Y.) according to Institutional Review Board guidelines. Low density CB cells (<1.077 g/ml) were obtained by density centrifugation on Ficoll-Paque PLUS (GE Healthcare Bio-Sciences AB, Uppsala, Sweden), from which CD34^+ cells were immunomagnetically isolated by the MACS CD34 progenitor isolation kit (Miltenyi Biotech, Inc., Auburn, Calif.) as described in Araki et al., 2009, Exp Hematol. 37: 1084-1095). The purity of isolated CD34^+ cells routinely ranged from 90-99%.
CD34^+ cell expansion culture with or without CMA was carried out as described (Araki et al., 2009, Id.; Araki et al. 2006, Exp Hematol. 34: 140-149; Araki et al, 2007, Blood 109: 3570-3578.). All other HDAC inhibitors including 1 mM VPA (Sigma), TSA (5 ng/mL), NA (5 mM) or 5 μM of Suberoylanilide hydroxamic acid (SAHA; BioVision, Inc. Mountain View, Calif.) was added twice at 0 hr and after changing media at 48 hrs of culture. HDAC inhibitors were added only once (48 hr) when used in combination with a DNMT inhibitor as described (Araki et al., 2009, Id.; Araki et al., 2006, Id.; Himburg et al., 2010, Nat. Med. 16: 475-482).
Flow cytometric analysis was carried out as described (Araki et al., 2009, Id.; Araki et al. 2006, Id.; Araki et al, 2007, Id.). All antibodies were purchased from BD Bioscience (San Jose, Calif.). All analyses were paired with the corresponding matched isotype control and at least 10,000 live cells were acquired for each analysis (CellQuest software, Becton Dickinson).
In order to compare the effects of various chromatin modifying agents (CMAs) on the degree of expansion of cord blood-derived, primitive subpopulation of CD34^+ cells, valproic acid (VPA), trichostatin A (TSA), nicotinic acid (NA), suberoylanilide hydroxamic acid (SAHA) or 5-aza-2′-deoxycytidine (5azaD) as single agents or in combination was tested in vitro. The results of fluorescence-activated cell sorting experiments performed on cord blood-derived CD34^+/CD90^+ cells treated with CMA agents is shown in FIG. 1A.

[2] = tested on: histone H4 acetylation of gene promoter sites; assay: Chromatin immunoprecipitation (ChIP) assay with anti-acetyl-Histone H4 antibody; details: FIG. 6B
Description: The ChIP assay was carried out using a commercial Assay kit using the manufacturer's protocol (Millipore; Billerica, Mass.) as described (Sankar et al., 2008, Oncogene 27: 5717-5728). Briefly, after 72 hours of culture CD34^+ cells were crosslinked with formaldehyde and the cell pellet was lysed and sonicated to produce genomic fragments and immunoprecipitated using anti-acetyl-Histone H4 antibody (Millipore). Amplified PCR fragments were then analyzed on a 1.2% agarose gel.
In order to examine whether the alteration of gene expression observed in CD34^+ cells during ex vivo expansion culture with CMA was due to changes in histone acetylation, acetylation of histone H4 was analyzed for several gene promoter sites including HoxB4, Bmi1, GATA2, PU.1, as well as GAPDH as a control. Standard chromatin immunoprecipitation (ChIP) assays were used employing an antibody specific to acetylated histone H4 as described previously (Sankar et al., 2008, Oncogene 27:5717-28). […] More promoter fragments for Bmi1, HoxB4, and GATA2, and less fragments for PU.1 were amplified in 5azaD/TSA expanded CD34^+ cells as compared to control and VPA-expanded CD34^+ cells (FIG. 6B).

[3] = tested on: promoter CpG sites (GATA1, S100A8, Cyp11A1); assay: Pyrosequencing of promoter CpG sites of genes in expanded CD34+ cells; details: FIG. 5C
Description: (§1) DNA methylation analysis was performed by EpigenDx (Worcester, Mass.) using quantitative pyrosequencing and the PSQ-HS96 system according to standard procedures (Warren et al., 2010, Cell Stem Cell. 7: 618-630). Primers were developed for the CpG sites near the promoter area as detailed in Table 3. Briefly, genomic DNA was isolated from primary or CMA expanded enriched CD34^+ cells using the Blood and Cell Culture DNA kit (Qiagen, Valencia Calif.). Genomic DNA was bisulfite treated by an EZ Methylation Kit (Zymo Research, Irvine, Calif.), and biotinylated gene specific primers or long interspersed nucleotide element 1 (LINE-1) primers were used to amplify regions of interest for analysis as described (Bhatia et al., 1997, J Exp Med. 186: 619-624).
Genomic DNA was isolated from primary, 5azaD/TSA or VPA expanded CD34^+ cells following culture using the Blood and Cell Culture DNA kit (Qiagen, Valencia Calif.). Genomic DNA was bisulfite treated by an EZ Methylation Kit (Zymo Research, Irvine, Calif.).

LINE-1 = assay: Global DNA methylation (LINE-1) by pyrosequencing; details: CD34+ cells at day 3 of culture; FIG. 6A
Description: as §1
Global methylation of genomic DNA was quantified by assaying long interspersed nucleotide element 1 (LINE 1) methylation as a surrogate marker (Yang et al., 2004, Nucleic Acids Res. 32: e38). The degree of global methylation of CD34^+ cells prior to and following ex vivo culture in the presence or absence of CMAs (5azaD/TSA and VPA) was determined in these experiments. […] CD34^+ cells cultured in 5azaD/TSA and VPA had 55.4%±2.2% and 77.2%±2.0% methylation respectively at day 3 (FIG. 6A).

[4] = tested on: colony-forming cells (CFC); assay: Colony-forming cell (CFC) assay of CMA expanded CB cells; details: for CFC PE (%) (Colony Forming Cell Plating Efficiency): mean ± SEM of three independent experiments
Description: Colony-forming cell (CFC) were assayed by plating 5×10^2 cells per dish in semisolid media and were counted after 14 days as described (Araki et al., 2009, Id.). The number of cobble stone area-forming cell (CAFC) was quantitated in primary and expanded CD34+ cells by plating in limiting dilution onto irradiated M2-10B4 stromal cells as described (Araki et al., 2009, Id.; Conneally et al., 1997, Proc. Natl. Acad. Sci. USA. 94: 9836-9841; Taswell, 1981, J. Immunol. 126: 1614-1619).
In order to determine the a correlation between expansion of CD34^+CD90^+ cells and their functional potential as pluripotent hematopoietic stem cells, in vitro functional assays were performed, including assessment of colony-forming cells (CFC), a short-term assay, and cobblestone-area forming cells (CAFC), a long-term assay.

CCCC(CCC)C(=O)O [VPA, valproic acid]
cells co-expressing CD34+ and CD90+ ([1]; 9 days of culture, cytokines (SCF, Flt3-ligand, TPO, IL-3) plus CMA, FIG. 1A): 42.2%
fold expansion of CD34+CD90+ cells ([1]; 9 days of culture, cytokines plus CMA, FIG. 1B): 64.6±3.7 fold and 65 fold
CD34+CD90+ (%) ([1]; mean ± SEM of three independent experiments): 42.17 ± 13.45 %
histone H4 acetylation of the promoter regions of HoxB4, Bmi1 and GATA2 genes in contrast to control cultures ([2]; CD34+ cells after 72 hours of culture): Increased histone H4 acetylation
levels of histone H4 acetylation for Bmi1 and HoxB4 genes compared to control cultures [2]: intermediate levels
methylation levels of S100A8 and Cyp11A1 gene promoter sites [3]: almost completely lacked any changes in methylation
methylation of the GATA1 gene promoter [3]: minimal demethylation
mean LINE 1 methylation (four CpG sites) (LINE-1): 77.2%
fold expansion of primitive CFU-mix colonies ([4]; cytokines plus CMA, FIG. 2A): 13.3±4.7 fold
CFC PE (%) (Colony Forming Cell Plating Efficiency) [4]: 15.27%
CFC PE (%) (Colony Forming Cell Plating Efficiency) ([4]; listed as VPA Alone): 15.27 ± 3.66 %

Source: patent US20130136722A1, “Methods of Ex Vivo Expansion of Blood Progenitor Cells, and Generation of Composite Grafts” (The Board of Trustees of The University of Illinois, priority 2011, published 2013)
